{"source": "patent US20240216369A1", "about": "“THE USE OF A SPLICING MODULATOR FOR A TREATMENT SLOWING PROGRESSION OF HUNTINGTON'S DISEASE” (Novartis AG, priority 2019, published 2024)", "key": {"HTT transcript": {"system": "HTT transcript", "assay": "In vitro evaluation in SH-SY5Y cells: HTT transcript by quantitative PCR", "type": "cell-based, human", "conditions": "24 hours", "description": "Cultured human neuroblastoma (SH-SY5Y cell line) cells were treated at doses ranging from 5 nM-125 nM for 24 hours (for transcript evaluation) or 48 hours (for protein evaluation). RNA was quantified by Nanodrop 2000 (Thermo Scientific). cDNAs were synthesized from 140-400 ng RNA using Maxima First strand cDNA synthesis kit using a mix of oligo dT and random hexamers (Thermo Scientific) in 20 uL reaction at 25° C. for 10 min, 50° C. for 15 min then 85° C. for 5 min. Quantitative PCR was performed using Taqman Fast Advanced master mix (Thermo Scientific) in 20 uL with 4 uL of cDNA reaction and primers specific for each genes. The PCR steps were as follows: 95° C. for 20 sec then 40 cycles of 95° C. for 1 sec, 55° C. for 20 sec. The sequence of primers were, for WT human HTT, forward, 5′-[…]-3′ (SEQ ID NO: 1); reverse, 5′-[…]-3′ (SEQ ID NO: 2) and sequence of probe was 56-FAM/TTG TGA AAT/ZEN/TCG TGG TGG CAA CCC/3IABKFQ/(SEQ ID NO: 8), for HTT novel exon, forward, 5′-[…]-3′ (SEQ ID NO: 3); reverse, 5′-[…]-3′ (SEQ ID NO: 4) and sequence of probe/56-FAM/AAT TCG TGG/ZEN/TGG CAA CCC TTG AGA/3IABKFQ/(SEQ ID NO: 7). Relative quantification of gene expression was performed using 2-AACT method. Fold changes in the mRNA expression level was calculated following normalization to […] glucuronidase beta (Gusb) as an endogenous reference (FIGS. 2a and 2b)."}, "mutant HTT protein": {"system": "mutant HTT protein", "assay": "Mouse population PK/PD turnover model based on BacHD mouse", "type": "in vivo", "conditions": "for Imax: set to 1", "excerpt": "For the development of the PK/PD relationship, the concentration of mutant HTT protein in the brain of BacHD mice and its changes after branaplam administration were used as PD biomarker (Example 1a). To increase the data base, all concentrations of the mutant HTT protein were pooled. The correlation between branaplam concentrations in plasma and the mutant HTT protein concentrations in the brain were investigated by means of a turnover model (described below) considering the inhibition of the production of mutant HTT protein in the brain. Since mutant HTT protein was determined in brain cortex and brain striatum, the PK/PD correlations were executed for both brain parts separately. […] For the execution of the population PK/PD model, the PK parameters (presented in Table 6) from the previously described population PK model were fixed and the PD parameters were calculated. The Monolix software (Version 2018R1, Lixoft) and its turnover model described in the library (pkpd/oral1_2cpt_SigmoidindirectModelinhibitionKin_TlagkaCIV1QV2R0koutimaxIC50gamma) was used to determine the PD parameters in the mouse. The PD part of the model can be described by the following equation:\nmutant HTT protein change over time=kin*(1−I max*max(Cc,0)^gamma/(max(Cc,0)^gamma+IC50^gamma))−kout*R • kin: synthesis rate of mutant HTT protein • kout: degradation rate of mutant HTT protein • Imax: maximum inhibition effect • IC50: half-maximum inhibitory concentration • gamma: sigmoidicity of the drug effect • max(Cc,0): branaplam plasma concentration • R: mutant HTT protein level at a given time with baseline R0 of 1 since only relative changes to the baseline were determined in the BacHD mouse model, Example 1a\nIt has to be noted, that the maximum inhibitory effect was set to 1 and the mutant HTT protein baseline, R0, was set to 1 since only relative changes to the baseline were determined in the BacHD mouse (Example 1a)."}, "Huntingtin protein": {"system": "Huntingtin protein", "assay": "In vitro evaluation in SH-SY5Y cells: Huntingtin protein by Western blot", "type": "cell-based, human", "conditions": "48 hours", "description": "Cultured human neuroblastoma (SH-SY5Y cell line) cells were treated at doses ranging from 5 nM-125 nM for 24 hours (for transcript evaluation) or 48 hours (for protein evaluation). RNA was quantified by Nanodrop 2000 (Thermo Scientific). cDNAs were synthesized from 140-400 ng RNA using Maxima First strand cDNA synthesis kit using a mix of oligo dT and random hexamers (Thermo Scientific) in 20 uL reaction at 25° C. for 10 min, 50° C. for 15 min then 85° C. for 5 min. Quantitative PCR was performed using Taqman Fast Advanced master mix (Thermo Scientific) in 20 uL with 4 uL of cDNA reaction and primers specific for each genes. The PCR steps were as follows: 95° C. for 20 sec then 40 cycles of 95° C. for 1 sec, 55° C. for 20 sec. […] Relative quantification of gene expression was performed using 2-AACT method. Fold changes in the mRNA expression level was calculated following normalization to […] glucuronidase beta (Gusb) as an endogenous reference (FIGS. 2a and 2b).\nFor protein analysis, cells were lysed in RIPA buffer with protease and phosphatase inhibitor (Thermo Scientific). […] Total protein concentration was quantified using the BCA protein Assay (Thermo Scientific). […] Protein bands were quantified by Image J."}}}
{"molecule": "CC1(C)CC(Oc2ccc(-c3ccc(-c4cn[nH]c4)cc3O)nn2)CC(C)(C)N1", "note": "[Compound 18, 5-(1H-pyrazol-4-yl)-2-(6-((2,2,6,6-tetramethylpiperidin-4-yl)oxy)pyridazin-3-yl)phenol]", "values": [{"measurement": "increase in novel-exon-containing HTT transcript", "setting": "HTT transcript; 5 nM-125 nM", "value": "100-500 fold"}, {"measurement": "lowering of total Huntingtin transcript", "setting": "HTT transcript; 5 nM-125 nM", "value": "30-90 % of normal endogenous levels"}, {"measurement": "EC50", "setting": "HTT transcript; Homo sapiens, read-out: EC50 for lowering of HTT transcript", "value": "20 to 25", "unit": "nM"}, {"measurement": "time of maximum decrease of mutant HTT protein in the brain", "setting": "mutant HTT protein; BacHD mouse", "value": "about 72 h post dose"}, {"measurement": "IC50 (plasma concentration, inhibition of mutant HTT protein production)", "setting": "mutant HTT protein; popPD parameters (cortex), BacHD mouse", "value": 0.174, "unit": "µg/mL"}, {"measurement": "Imax", "setting": "mutant HTT protein; popPD parameters (cortex)", "value": 1}, {"measurement": "IC50 (plasma concentration, inhibition of mutant HTT protein production)", "setting": "mutant HTT protein; popPD parameters (striatum), BacHD mouse", "value": 0.0682, "unit": "µg/mL"}, {"measurement": "Imax", "setting": "mutant HTT protein; popPD parameters (striatum)", "value": 1}, {"measurement": "reduction of normal Huntingtin protein", "setting": "Huntingtin protein; 5 nM-125 nM, Western blot", "value": "50-70%"}, {"measurement": "EC50", "setting": "Huntingtin protein; read-out: EC50 for HTT protein lowering", "value": "10 to 25", "unit": "nM"}]}
